Assay results from patent publication US20230081426A1, “COMPOUNDS AND METHODS FOR KRAS MODULATION AND INDICATIONS THEREFOR” (Plexxikon Inc., priority 2020, published 2023).

Key:
[1] = molecular target: T1, G12V-mutant human KRAS (amino acid residues 1-188) (Homo sapiens, UniProt P01116, G12V); test: KRAS Binding Competition Assay (AlphaScreen; biotinylated KRpep-2d analogue), G12V; conditions: geometric mean, read-out: KRAS GMean IC50 (uM) MUTATION: G12V
T1 construct: G12V-mutant human KRAS (amino acid residues 1-188) with FLAG tag was purified from E. coli; made in house; host or cells: E. coli
Method: Compound binding disrupts the interaction of KRpep-2d with KRAS, leading to a decrease in Alpha signal.
All assay components were prepared in 20 mM HEPES (pH 7.5), 100 mM NaCl, 5 mM MgCl2, 0.01% Tween-20, and 0.01% BSA. Biotinylated analogues of KRpep-2d were custom synthesized. The binding competition assays were performed using 10 nM of mutant KRAS and 10 nM of biotinylated KRpep-2d analogue. 19 μL of KRAS protein and 4 μL of biotinylated KRpep-2d were added to the wells of a 384-well plate containing 1 μL of various concentrations of test compound or DMSO vehicle. 16 wells containing KRAS, biotinylated KRpep-2d, and 5% DMSO served as high controls. 16 wells containing KRAS only and 5% DMSO served as low controls. Binding reactions were incubated for 1 hour at 25° C., then Anti-Flag Acceptor and Streptavidin Donor Alpha beads were added at a final concentration of 10 μg/mL for an additional hour at room temperature. Alpha signal was read out on a Perkin Elmer Envision HTS instrument. The percentage inhibition at individual compound concentrations relative to high and low controls was calculated. The data were analyzed by using nonlinear regression to generate IC50 values.

[2] = molecular target: T2, G12D-mutant human KRAS (amino acid residues 1-188) (Homo sapiens, UniProt P01116, G12D); test: KRAS Binding Disruption Assay (AlphaScreen; biotinylated KRpep-2d analogue or RAF1-RBD), G12D; conditions: KRAS G12D; geometric mean; read-out: KRAS GMean IC50 (uM) MUTATION: G12D
T2 construct: G12D or G12C-mutant human KRAS (amino acid residues 1-188) with FLAG tag; made in house; host or cells: E. coli
Outline: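 Displacement format with mutant KRAS, biotinylated KRpep-2d analogue or RAF1-RBD (5-20 nM each) at pH 7.5 with 5 mM MgCl2.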

Row | IC50 [1] | IC50 [2] | Structure (SMILES)
1 | 10 to 100 µM | 0.0001 to 10 µM | Cc1ccc2[nH]ncc2c1-c1ccc2c(N3C[C@H]4CC[C@@H](C3)N4)nc(OCC34CCCN3CCC4)nc2c1F [P-0101, 4-((1R,5S)-3,8-diazabicyclo[3.2.1]octan-3-yl)-8-fluoro-7-(5-methyl-1H-indazol-4-yl)-2-((tetrahydro-1H-pyrrolizin-7a(5H)-yl)methoxy)quinazoline]
2 | 0.0001 to 10 µM | 0.0001 to 10 µM | CN1CCC[C@H]1COc1nc(N2C[C@H]3CC[C@@H](C2)N3C(=O)CO)c2ccc(-c3cc(O)cc4ccccc34)c(F)c2n1 [P-0104, 1-((1R,5S)-3-(8-fluoro-7-(3-hydroxynaphthalen-1-yl)-2-(((S)-1-methylpyrrolidin-2-yl)methoxy)quinazolin-4-yl)-3,8-diazabicyclo[3.2.1]octan-8-yl)-2-hydroxyethan-1-one]
3 | 0.0001 to 10 µM | 0.0001 to 10 µM | CN1CCC[C@H]1COc1nc(N2C[C@H]3CC[C@@H](C2)N3C(=O)CCS(N)(=O)=O)c2ccc(-c3cc(O)cc4ccccc34)c(F)c2n1 [P-0105, 3-((1R,5S)-3-(8-fluoro-7-(3-hydroxynaphthalen-1-yl)-2-(((S)-1-methylpyrrolidin-2-yl)methoxy)quinazolin-4-yl)-3,8-diazabicyclo[3.2.1]octan-8-yl)-3-oxopropane-1-sulfonamide]
4 | 0.0001 to 10 µM | 0.0001 to 10 µM | CN1CCC[C@H]1COc1nc(N2C[C@H]3CC[C@@H](C2)N3C(=O)c2n[nH]c(=O)[nH]2)c2ccc(-c3cc(O)cc4ccccc34)c(F)c2n1 [P-0107, 5-((1R,5S)-3-(8-fluoro-7-(3-hydroxynaphthalen-1-yl)-2-(((S)-1-methylpyrrolidin-2-yl)methoxy)quinazolin-4-yl)-3,8-diazabicyclo[3.2.1]octane-8-carbonyl)-2,4-dihydro-3H-1,2,4-triazol-3-one]
5 | 0.0001 to 10 µM | 0.0001 to 10 µM | O=C(c1c[nH]c(=O)[nH]c1=O)N1[C@@H]2CC[C@H]1CN(c1nc(OCC34CCCN3CCC4)nc3cc(-c4cc(O)cc5ccccc45)ccc13)C2 [P-0108, 5-((1R,5S)-3-(7-(3-hydroxynaphthalen-1-yl)-2-((tetrahydro-1H-pyrrolizin-7a(5H)-yl)methoxy)quinazolin-4-yl)-3,8-diazabicyclo[3.2.1]octane-8-carbonyl)pyrimidine-2,4(1H,3H)-dione]
6 | 10 to 100 µM | 0.0001 to 10 µM | Cc1cc(C(=O)N2[C@@H]3CC[C@H]2CN(c2nc(OCC45CCCN4CCC5)nc4cc(-c5cc(O)cc6ccccc56)ccc24)C3)[nH]c(=O)n1 [P-0109, 6-((1R,5S)-3-(7-(3-hydroxynaphthalen-1-yl)-2-((tetrahydro-1H-pyrrolizin-7a(5H)-yl)methoxy)quinazolin-4-yl)-3,8-diazabicyclo[3.2.1]octane-8-carbonyl)-4-methylpyrimidin-2(1H)-one]
7 | 0.0001 to 10 µM | 0.0001 to 10 µM | O=C([C@@H]1CCNC1)N1[C@@H]2CC[C@H]1CN(c1nc(OCC34CCCN3CCC4)nc3cc(-c4cc(O)cc5ccccc45)ccc13)C2 [P-0111, ((1R,5S)-3-(7-(3-hydroxynaphthalen-1-yl)-2-((tetrahydro-1H-pyrrolizin-7a(5H)-yl)methoxy)quinazolin-4-yl)-3,8-diazabicyclo[3.2.1]octan-8-yl)((R)-pyrrolidin-3-yl)methanone]
8 | 0.0001 to 10 µM | 0.0001 to 10 µM | O=C([C@H]1CCNC1)N1[C@@H]2CC[C@H]1CN(c1nc(OCC34CCCN3CCC4)nc3cc(-c4cc(O)cc5ccccc45)ccc13)C2 [P-0112, ((1R,5S)-3-(7-(3-hydroxynaphthalen-1-yl)-2-((tetrahydro-1H-pyrrolizin-7a(5H)-yl)methoxy)quinazolin-4-yl)-3,8-diazabicyclo[3.2.1]octan-8-yl)((S)-pyrrolidin-3-yl)methanone]
9 | 0.0001 to 10 µM | 0.0001 to 10 µM | O=C(CN1[C@@H]2CC[C@H]1CN(c1nc(OCC34CCCN3CCC4)nc3cc(-c4cc(O)cc5ccccc45)ccc13)C2)C1CCNCC1 [P-0138, 2-((1R,5S)-3-(7-(3-hydroxynaphthalen-1-yl)-2-((tetrahydro-1H-pyrrolizin-7a(5H)-yl)methoxy)quinazolin-4-yl)-3,8-diazabicyclo[3.2.1]octan-8-yl)-1-(piperidin-4-yl)ethan-1-one]
10 | 10 to 100 µM | 10 to 100 µM | COCCS(=O)(=O)N1[C@@H]2CC[C@H]1CN(c1nc(OCC34CCCN3CCC4)nc3cc(-c4cc(O)cc5ccccc45)ccc13)C2 [P-0139, 4-(4-((1R,5S)-8-((2-methoxyethyl)sulfonyl)-3,8-diazabicyclo[3.2.1]octan-3-yl)-2-((tetrahydro-1H-pyrrolizin-7a(5H)-yl)methoxy)quinazolin-7-yl)naphthalen-2-ol]
11 | 0.0001 to 10 µM | 0.0001 to 10 µM | O=C(N[C@@H]1C[C@H]2CC[C@@H]1O2)N1[C@@H]2CC[C@H]1CN(c1nc(OCC34CCCN3CCC4)nc3cc(-c4cc(O)cc5ccccc45)ccc13)C2 [P-0140, (1R,5S)-N-((1S,2R,4R)-7-oxabicyclo[2.2.1]heptan-2-yl)-3-(7-(3-hydroxynaphthalen-1-yl)-2-((tetrahydro-1H-pyrrolizin-7a(5H)-yl)methoxy)quinazolin-4-yl)-3,8-diazabicyclo[3.2.1]octane-8-carboxamide]
12 | 0.0001 to 10 µM | 0.0001 to 10 µM | CC(C)(O)CNC(=O)N1[C@@H]2CC[C@H]1CN(c1nc(OCC34CCCN3CCC4)nc3cc(-c4cc(O)cc5ccccc45)ccc13)C2 [P-0141, (1R,5S)-N-(2-hydroxy-2-methylpropyl)-3-(7-(3-hydroxynaphthalen-1-yl)-2-((tetrahydro-1H-pyrrolizin-7a(5H)-yl)methoxy)quinazolin-4-yl)-3,8-diazabicyclo[3.2.1]octane-8-carboxamide]
13 | 0.0001 to 10 µM | 0.0001 to 10 µM | O=C(N[C@H]1CCCNC1)N1[C@@H]2CC[C@H]1CN(c1nc(OCC34CCCN3CCC4)nc3cc(-c4cc(O)cc5ccccc45)ccc13)C2 [P-0142, (1R,5S)-3-(7-(3-hydroxynaphthalen-1-yl)-2-((tetrahydro-1H-pyrrolizin-7a(5H)-yl)methoxy)quinazolin-4-yl)-N-((S)-piperidin-3-yl)-3,8-diazabicyclo[3.2.1]octane-8-carboxamide]
14 | 0.0001 to 10 µM | 0.0001 to 10 µM | O=C(N[C@@H]1CCCNC1)N1[C@@H]2CC[C@H]1CN(c1nc(OCC34CCCN3CCC4)nc3cc(-c4cc(O)cc5ccccc45)ccc13)C2 [P-0143, (1R,5S)-3-(7-(3-hydroxynaphthalen-1-yl)-2-((tetrahydro-1H-pyrrolizin-7a(5H)-yl)methoxy)quinazolin-4-yl)-N-((R)-piperidin-3-yl)-3,8-diazabicyclo[3.2.1]octane-8-carboxamide]
15 | 0.0001 to 10 µM | 0.0001 to 10 µM | CN1CCC[C@H]1COc1nc(N2C[C@H]3CC[C@@H](C2)N3CC(N)=O)c2ccc(-c3cc(O)cc4ccccc34)c(F)c2n1 [P-0144, 2-((1R,5S)-3-(8-fluoro-7-(3-hydroxynaphthalen-1-yl)-2-(((S)-1-methylpyrrolidin-2-yl)methoxy)quinazolin-4-yl)-3,8-diazabicyclo[3.2.1]octan-8-yl)acetamide]
16 | 10 to 100 µM | 10 to 100 µM | CN1CCC[C@H]1COc1nc(N2[C@@H]3CC[C@H]2CN(CCO)C3)c2ccc(-c3cc(O)cc4ccccc34)cc2n1 [P-0145, 4-(4-((1R,5S)-3-(2-hydroxyethyl)-3,8-diazabicyclo[3.2.1]octan-8-yl)-2-(((S)-1-methylpyrrolidin-2-yl)methoxy)quinazolin-7-yl)naphthalen-2-ol]
17 | 0.0001 to 10 µM | 0.0001 to 10 µM | CN(C)CCCC(=O)N1[C@@H]2CC[C@H]1CN(c1nc(OCC34CCCN3CCC4)nc3c(F)c(-c4cc(O)cc5ccccc45)ccc13)C2 [P-0146, 4-(dimethylamino)-1-((1R,5S)-3-(8-fluoro-7-(3-hydroxynaphthalen-1-yl)-2-((tetrahydro-1H-pyrrolizin-7a(5H)-yl)methoxy)quinazolin-4-yl)-3,8-diazabicyclo[3.2.1]octan-8-yl)butan-1-one]
18 | 0.0001 to 10 µM | 0.0001 to 10 µM | O=C(C1C2CCC1CNC2)N1[C@@H]2CC[C@H]1CN(c1nc(OCC34CCCN3CCC4)nc3c(F)c(-c4cc(O)cc5ccccc45)ccc13)C2 (stereo partly drawn) [P-0147, (3-azabicyclo[3.2.1]octan-8-yl)((1R,5S)-3-(8-fluoro-7-(3-hydroxynaphthalen-1-yl)-2-((tetrahydro-1H-pyrrolizin-7a(5H)-yl)methoxy)quinazolin-4-yl)-3,8-diazabicyclo[3.2.1]octan-8-yl)methanone]
19 | 10 to 100 µM | 100 to 1000 µM | CN1CCC[C@H]1COc1nc(N2[C@@H]3CC[C@H]2CNC3)c2ccc(-c3cccc(C(N)=O)n3)cc2n1 [P-0148, 6-(4-((1R,5S)-3,8-diazabicyclo[3.2.1]octan-8-yl)-2-(((S)-1-methylpyrrolidin-2-yl)methoxy)quinazolin-7-yl)picolinamide]
